Assay results published in patent US12186359B2, “Composition containing branched-chain amino acids” (priority 2019, dated 2025).
Peptide text beside a SMILES is read from it.

Conditions: mouse, in vivo
Procedure: The aim of the study was to compare the exposure of L-Leucine-13C6, 15N, L-Isoleucine-13C6, 15N, L-Valine-13C5, 15N in plasma after their administration alone or in association with L-Alanine or L-Alanyl-L-alanine in the mouse. Plasma samples were analyzed by dean-up and derivatization using the EZfaast™ amino acid analysis kit (Phenomenex) and analyzed by UPLC-MSMS.
CD1 mouse with body weights of 25-30 gr at the time of the treatment were used in this study, approximate age was about 4 weeks according to growth curve. The animals were originally supplied by Harlan, Italy. Once receipt from the supplier, the animals were subjected to health examinations and acceptance. The animals were housed, in a group of five, in cages suitable for the species. The animals were acclimatized to local housing conditions for approximately 5 days. The animals were routinely kept in the following environment except for short periods of time where experimental procedures dictated otherwise. The animals were housed in a single, exclusive room, air conditioned to provide a minimum of 15 air changes/hour. […] Clinical signs were monitored at regular intervals throughout the study in order to assess any reaction to treatment. […]

Plasma concentrations of the labelled amino acids (AUC0-24 h), rank among groups: highest concentrations
SMILES: C[C@H](N)C(=O)N[C@@H](C)C(=O)O [L-Alanyl-L-alanine] (H-Ala-Ala-OH)
